# Molecular target: T1, human HSP90α (Homo sapiens, UniProt P07900)
# T1 construct: host or cells: E. coli
# Assay: radioligand filter binding test, competition with [3H]17AAG for HSP90
# Settings: recombinant human HSP90α, [3H]17AAG 0.08 μM, 22° C., 30 min
# Text: The binding of geldanamycin or 17-allylamino-17-demethoxygeldanamycin (17AAG) to HSP90 and competitive inhibition thereof can be utilised in order to determine the inhibitory activity of the compounds according to the invention (Carreras et al. 2003, Chiosis et al. 2002).
# In the specific case, a radioligand filter binding test is used. The radioligand used here is tritium-labelled 17-allylaminogeldanamycin, [3H]17AAG. This filter binding test allows a targeted search for inhibitors which interfere with the ATP binding site.
# Recombinant human HSP90α (E. coli expressed, 95% purity); [3H]17AAG (17-allylaminogeldanamycin, [allylamino-2,3-^3H. Specific activity: 1.11×10^12 Bq/mmol (Moravek, MT-1717);
# HEPES filter buffer (50 mM HEPES, pH 7.0, 5 mM MgCl2, BSA 0.01%) Multiscreen FB (1 μm) filter plate (Millipore, MAFBNOB 50).
# The 96-well microtitre filter plates are firstly irrigated and coated with 0.1% of polyethylenimine.
# The test is carried out under the following conditions: • Reaction temperature 22° C. • Reaction time: 30 min., shaking at 800 rpm • Test volume: 50 μl • Final Concentrations: • 50 mM HEPES HCl, pH 7.0, 5 mM MgCl2, 0.01% (w/v) BSA • HSP90:1.5 μg/assay • [3H]17AAG: 0.08 μM.
# At the end of the reaction, the supernatant in the filter plate is removed by suction with the aid of a vacuum manifold (Multiscreen Separation System, Millipore), and the filter is washed twice.
# The filter plates are then measured in a beta counter (Microbeta, Wallac) with scintillator (Microscint 20, Packard).
# “% of control” is determined from the “counts per minutes” values and the IC-50 value of a compound is calculated therefrom.
row,SMILES,IC50 [µM]
1,"COc1ccc(-c2c(C#N)c(N)nc3sc(C(N)=O)c(N)c23)cc1NC(=O)c1ccc(C(F)(F)F)cc1 [Compound A35, 2-aminocarbonyl-3,6-diamino-5-cyano-4-[4-methoxy-3-(4-trifluoromethylbenzoylamino)phenyl]thieno[2,3-b]pyridine]",5.9
2,"COc1ccc(-c2c(C#N)c(N)nc3sc(C(N)=O)c(N)c23)cc1NC(=O)c1ccccc1C(F)(F)F [Compound A36, 2-aminocarbonyl-3,6-diamino-5-cyano-4-[4-methoxy-3-(2-trifluoromethylbenzoylamino)phenyl]thieno[2,3-b]pyridine]",11
3,"COc1ccc(-c2c(C#N)c(N)nc3sc(C(N)=O)c(N)c23)cc1NC(=O)c1ccncc1 [Compound A37, 2-aminocarbonyl-3,6-diamino-5-cyano-4-[4-methoxy-3-(pyridin-4-ylcarbonylamino)phenyl]thieno[2,3-b]pyridine]",1.9
4,"COc1ccc(-c2c(C#N)c(N)nc3sc(C(N)=O)c(N)c23)cc1NC(=O)C(C)C [Compound A38, 2-aminocarbonyl-3,6-diamino-5-cyano-4-[4-methoxy-3-(prop-2-ylcarbonylamino)phenyl]thieno[2,3-b]pyridine]",5.5

# From patent publication US7989625B2, “Thienopyridines” (Merck Patent GmbH, priority 2005, dated 2011)
